Measurements published in patent US20040043914A1, “Sustained release antimicrobial composition including a partially halogenated hydantoin and a colorant” (LONZA INC., priority 2002, published 2004).

Experiment: Total chlorine yield upon dissolution
Assay type: physicochemical
Description: The partially halogenated hydantoin is preferably monochloro-5,5-dimethyl hydantoin (MCDMH). MCDMH yields about 43% of its weight in total chlorine upon dissolution.

In the case of “monochloro-5,5-dimethyl hydantoin [MCDMH]”, the “total chlorine yielded upon dissolution” value is reported as “about 43 % of its weight”.
